Test results: US9878977B2, “N-((3,4,5-trimethoxystyryl)aryl)cinnamamide compounds as potential anticancer agents and process for the preparation thereof” (COUNCIL OF SCIENTIFIC & INDUSTRIAL RESEARCH, priority 2014, dated 2018)
Like-named read-outs stand apart in the source and are kept apart here.

What was measured:
[1] = system: Colo-205; assay: SRB anti-proliferative assay, Colo-205; assay type: cell-based, Human; details: COLO 205; Human colon cancer; concentration of drug causing 50% inhibition of cell growth; read-out: GI50 Colo-205
Experimental: (§1) The synthesized N-(3,4,5-trimethoxystyryl)aryl)cinnamamides were evaluated for their anti-proliferative activity in selected human cancer cell lines of breast cancer (MCF-7), prostate cancer (DU-145), lung cancer (Hop-62), cervical cancer (Hela), leukemia (K562), ovarian cancer (SK-OV-3), colon cancer (Colo-205), pancreatic (MAIPA-CA-2) by using sulforhodamine B (SRB) method (Vichai, V.; Kirtikara, K. Nat. Protoc. 2006, 1, 1112). […] CA-4 was used as the reference compound.

[2] = system: SK-OV-3; details: Human ovarian cancer; data from NCI60 dose response (NSC 613729); cited from earlier work
[3] = system: MCF-7; assay: SRB anti-proliferative assay, MCF-7; assay type: cell-based, Human; details: MCF7; Human breast cancer; concentration of drug causing 50% inhibition of cell growth; read-out: GI50 MCF-7
Experimental: as §1

[4] = system: K562; details: Human leukemia; data from NCI60 dose response (NSC 613729); cited from earlier work
[5] = system: Hela; assay: SRB anti-proliferative assay, Hela; assay type: cell-based, Human; details: Human cervical cancer, concentration of drug causing 50% inhibition of cell growth, read-out: GI50 Hela
Experimental: as §1

[6] = system: Hop-62; details: Human lung cancer; data from NCI60 dose response (NSC 613729); cited from earlier work
[7] = system: DU-145; assay: SRB anti-proliferative assay, DU-145; assay type: cell-based, Human; details: DU-145; Human prostate cancer; concentration of drug causing 50% inhibition of cell growth; read-out: GI50 DU-145
Experimental: as §1

[8] = system: Hop-62; assay: SRB anti-proliferative assay, Hop-62; assay type: cell-based, Human; details: HOP-62; Human lung cancer; concentration of drug causing 50% inhibition of cell growth; read-out: GI50 Hop-62
Experimental: as §1

[9] = system: MAIPA-CA-2; assay: SRB anti-proliferative assay, MAIPA-CA-2; assay type: cell-based, Human; details: Human pancreatic; concentration of drug causing 50% inhibition of cell growth; read-out: GI50 MAIPA-CA-2
Experimental: as §1

[10] = system: SK-OV-3; assay: SRB anti-proliferative assay, SK-OV-3; assay type: cell-based, Human; details: SK-OV-3; Human ovarian cancer; concentration of drug causing 50% inhibition of cell growth; read-out: GI50 SK-OV-3
Experimental: as §1

[11] = system: K562; assay: SRB anti-proliferative assay, K562; assay type: cell-based, Human; details: K562; Human leukemia; concentration of drug causing 50% inhibition of cell growth; read-out: GI50 K562
Experimental: as §1

[12] = system: tubulin; details: reported in J. Med. Chem. 2008, 51, 6211; cited from earlier work

Structure (SMILES) | GI50 [1] [nM] | GI50 [3] [nM] | GI50 [5] [nM] | GI50 [7] [nM] | GI50 [10] [nM] | GI50 [11] [nM] | GI50 [2] [nM] | GI50 [4] [nM] | GI50 [6] [nM] | GI50 [8] [nM] | GI50 [9] [nM] | inhibits tubulin polymerization, compared with CA-4 [12]
COc1ccc(/C=C\c2cc(OC)c(OC)c(OC)c2)cc1O [CA-4, combretastatin A4, reference compound] | 25 | 33 | 8 | 46 |  |  | 31600 | 31 | 150 |  |  | 
COc1ccc(C=Cc2cc(OC)c(OC)c(OC)c2)c(NC(=O)/C=C/c2ccc(Cl)cc2)c1O [Compound 20q, (E)-3-(4-Chlorophenyl)-N-(2-hydroxy-3-methoxy-6-(3,4,5-trimethoxystyryl)phenyl)acrylamide] | > 100000 | 55500 | 38800 | 54100 | 62600 | 24900 |  |  |  | 79400 | > 100000 | 
COc1ccc(C=Cc2cc(OC)c(OC)c(OC)c2)c(NC(=O)/C=C/c2ccc(F)cc2)c1O [Compound 20r, (E)-3-(4-Fluorophenyl)-N-(2-hydroxy-3-methoxy-6-(3,4,5-trimethoxystyryl)phenyl)acrylamide] | 67600 | 66 | 24000 | 83 | 47500 | 23500 |  |  |  | 43000 | 78100 | 
COc1ccc(/C=C/C(=O)Nc2c(C=Cc3cc(OC)c(OC)c(OC)c3)ccc(OC)c2O)cc1OC [Compound 20s, (E)-3-(3,4-Dimethoxyphenyl)-N-(2-hydroxy-3-methoxy-6-(3,4,5-trimethoxystyryl)phenyl)acrylamide] | 99 | 56 | 7500 | 60 | 99 | 94 |  |  |  | 90 | 29900 | 
COc1ccc(/C=C/C(=O)Nc2c(C=Cc3cc(OC)c(OC)c(OC)c3)ccc(OC)c2O)cc1O [Compound 20x, (E)-N-(2-hydroxy-3-methoxy-6-(3,4,5-trimethoxystyryl)phenyl)-3-(3-hydroxy-4-methoxyphenyl)acrylamide] | > 100000 | 95 | 15900 | 117 | 1800 | 23700 |  |  |  | 17100 | 46300 | 
COc1cc(/C=C\c2ccc(OC)c(N)c2)cc(OC)c1 [Compound S3, (Z)-5-(3,5-dimethoxystyryl)-2-methoxyaniline] |  |  |  |  |  |  |  |  |  |  |  | stronger than CA-4 by five folds

More lines, main results first:

GI50 [1] [nM] | GI50 [3] [nM] | GI50 [5] [nM] | GI50 [7] [nM] | GI50 [10] [nM] | GI50 [11] [nM] | Structure (SMILES) | GI50 [2] [nM] | GI50 [4] [nM] | GI50 [6] [nM] | GI50 [8] [nM] | GI50 [9] [nM] | inhibits tubulin polymerization, compared with CA-4 [12]
98 | 60 | 90 | 72 | 96 | 93 | COc1cc(/C=C/C(=O)Nc2c(C=Cc3cc(OC)c(OC)c(OC)c3)ccc(OC)c2O)ccc1O [Compound 20t, (E)-N-(2-Hydroxy-3-methoxy-6-(3,4,5-trimethoxystyryl)phenyl)-3-(4-hydroxy-3-methoxyphenyl)acrylamide] |  |  |  | 79 | 98 | 
96 | 95 | 99 | 75 | 7900 | 96 | COc1cc(/C=C/C(=O)Nc2c(C=Cc3cc(OC)c(OC)c(OC)c3)ccc(OC)c2O)ccc1[N+](=O)[O-] [Compound 20u, (E)-N-(2-Hydroxy-3-methoxy-6-(3,4,5-trimethoxystyryl)phenyl)-3-(3-methoxy-4-nitrophenyl)acrylamide] |  |  |  | 84 | 23500 | 
86 | 74 | 90 | 85 | 94 | 82 | COc1cc(/C=C/C(=O)Nc2c(C=Cc3cc(OC)c(OC)c(OC)c3)ccc(OC)c2O)ccc1N [Compound 20v, (E)-3-(4-Amino-3-methoxyphenyl)-N-(2-hydroxy-3-methoxy-6-(3,4,5-trimethoxystyryl)phenyl)acrylamide] |  |  |  | 35 | 97 | 
> 100000 | 19400 | 49200 | 64700 | 52600 | 46800 | COc1ccc(/C=C/C(=O)Nc2c(C=Cc3cc(OC)c(OC)c(OC)c3)ccc(OC)c2O)cc1[N+](=O)[O-] [Compound 20y, (E)-N-(2-Hydroxy-3-methoxy-6-(3,4,5-trimethoxystyryl)phenyl)-3-(4-methoxy-3-nitrophenyl)acrylamide] |  |  |  | 71300 | > 100000 | 
89 | 50 | 91 | 79 | 97 | 89 | COc1ccc(/C=C/C(=O)Nc2c(C=Cc3cc(OC)c(OC)c(OC)c3)ccc(OC)c2O)cc1N [Compound 20z, (E)-3-(3-Amino-4-methoxyphenyl)-N-(2-hydroxy-3-methoxy-6-(3,4,5-trimethoxystyryl)phenyl)acrylamide] |  |  |  | 44 | 14300 | 
